Test results reported in ChEMBL document CHEMBL1201862, “PubChem BioAssay data set” (2004).
The source made the active and inactive calls.

Key:
CAAX prenyl protease 1 = CAAX prenyl protease 1 (Saccharomyces cerevisiae S288c, UniProt P47154); test: yeast CAAX protease Ste24 inhibition – biochemical, S. cerevisiae, plate reader, cherry-pick, dose response (AID 488815)
CAAX prenyl protease 2 [1] = biological target: T1, CAAX prenyl protease 2 (Homo sapiens, UniProt Q9Y256); test: inhibition of Ras-converting CAAX protease Rce1 – biochemical, yeast membranes, quenched-peptide fluorescence, cherry-pick, dose response (AID 588849)
T1 sequence (Q9Y256 whole entry): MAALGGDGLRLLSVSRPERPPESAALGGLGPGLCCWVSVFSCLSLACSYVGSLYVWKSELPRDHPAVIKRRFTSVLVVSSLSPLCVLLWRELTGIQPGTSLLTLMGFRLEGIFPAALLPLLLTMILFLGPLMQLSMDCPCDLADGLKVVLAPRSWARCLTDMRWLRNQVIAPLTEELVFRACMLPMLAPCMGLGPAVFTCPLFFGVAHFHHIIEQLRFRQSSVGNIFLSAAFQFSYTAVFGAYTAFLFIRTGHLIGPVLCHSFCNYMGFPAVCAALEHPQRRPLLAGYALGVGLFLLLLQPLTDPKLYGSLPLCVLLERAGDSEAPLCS

[2] = HIV-1 Vif–A3G interaction blockers – biochemical, TR-FRET, GST-Vif 1-94, biotin-A3G peptide, dose response retest, primary screen (AID 1117319); assay type: functional;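 note: TR-FRET signal of purified GST-Vif binding a biotinylated A3G peptide; inhibitors lower the FRET signal by blocking Vif and A3G binding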
CAAX prenyl protease 2 [3] = biological target: CAAX prenyl protease 2 (Saccharomyces cerevisiae S288c, UniProt Q03530); assay type: biochemical
Trypsin = Trypsin (Sus scrofa, UniProt P00761); test: trypsin protease activity blockade – biochemical, quenched peptide fluorescence, cherry-pick, selectivity assay for Rce1 protease inhibitor project, dose response (AID 488789)
Large T antigen = Large T antigen (Simian virus 40, UniProt P03070); assay type: functional, Betapolyomavirus macacae;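 note: Confirmatory-stage PubChem screen for compounds that inhibit SV40 T antigen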
Estrogen receptor beta [4] = biological target: T2, Estrogen receptor beta (Homo sapiens, UniProt Q92731);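 note: recombinant ER-beta bound to coactivator SRC1 peptide in presence of estradiol agonist; inhibitors block coactivator peptide binding and lower the FRET signal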
[5] = protection from phage-mediated lysis, alamar blue read-out – E. coli UTI89, K1F phage, bacterial capsule biogenesis inhibitors (AID 488966); assay type: functional
[6] = biological target: 72 kDa type IV collagenase (Homo sapiens, UniProt P08253); test: Dose Response validation of uHTS RPN11 inhibitor hits using a MMP-2 Fluorescence assay.; assay type: functional
Estrogen receptor beta [7] = biological target: T2, Estrogen receptor beta; test: blockers of SRC-3 recruitment to ERβ – biochemical, ELISA, streptavidin-HRP readout, orthogonal assay, confirmation (AID 1060)
[8] = antiviral protection against BTV-induced cell death – arbovirus, BSR cells, confirmation (AID 1250); assay type: functional;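 note: protection from viral cytopathic effect measured as cell viability by ATP luminescence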
Protein Tat = Protein Tat (Human immunodeficiency virus type 1 group M subtype B (isolate HXB2)(HIV-1), UniProt P04608); assay type: functional;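 note: tat binding to TAR RNA read out by fluorescence polarization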
[9] = biological target: 26S proteasome non-ATPase regulatory subunit 14 (Homo sapiens, UniProt O00487); test: inhibition of proteasome subunit RPN11 – biochemical, fluorescence polarization, uHTS hits, confirmation (AID 602368); assay type: functional
Prothrombin = Prothrombin (Bos taurus, UniProt P00735); test: thrombin protease inhibitors – biochemical, fluorescence polarization, uHTS hits, dose response (AID 602369); assay type: functional
Protein skinhead-1 = biological target: T3, Protein skinhead-1 (Caenorhabditis elegans, UniProt P34707); assay type: functional
T3 sequence (P34707 whole entry): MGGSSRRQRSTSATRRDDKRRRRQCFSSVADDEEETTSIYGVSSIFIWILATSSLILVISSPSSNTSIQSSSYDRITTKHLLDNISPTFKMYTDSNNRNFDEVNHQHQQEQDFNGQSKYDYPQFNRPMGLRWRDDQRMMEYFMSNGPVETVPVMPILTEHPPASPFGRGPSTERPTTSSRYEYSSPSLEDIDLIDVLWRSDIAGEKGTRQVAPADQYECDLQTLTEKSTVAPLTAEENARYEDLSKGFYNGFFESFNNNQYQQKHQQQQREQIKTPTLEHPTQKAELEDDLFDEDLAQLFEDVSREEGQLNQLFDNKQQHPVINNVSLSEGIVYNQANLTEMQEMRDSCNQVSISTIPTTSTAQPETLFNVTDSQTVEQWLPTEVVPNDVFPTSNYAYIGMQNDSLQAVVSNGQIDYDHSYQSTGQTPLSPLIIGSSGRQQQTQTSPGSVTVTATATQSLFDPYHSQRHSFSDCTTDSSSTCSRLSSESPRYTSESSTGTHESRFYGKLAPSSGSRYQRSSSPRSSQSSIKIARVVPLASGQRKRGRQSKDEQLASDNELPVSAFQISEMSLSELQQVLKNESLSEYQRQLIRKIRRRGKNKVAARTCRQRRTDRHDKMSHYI

[10] = biological target: Induced myeloid leukemia cell differentiation protein Mcl-1 (Homo sapiens, UniProt Q07820); assay type: functional
[11] = biological target: T4, Voltage-gated N-type calcium channel alpha-1B subunit/Amyloid beta A4 precursor protein-binding family A member 1 (Homo sapiens, UniProt Q00975+Q02410); assay type: protein assay
Caspase-7 = Caspase-7 (Homo sapiens, UniProt P55210); test: activation of caspase-7 zymogen – biochemical, absorbance, counter-screen for procaspase-3 activator project, dose response (AID 489013)
[12] = biological target: T4, Voltage-gated N-type calcium channel alpha-1B subunit/Amyloid beta A4 precursor protein-binding family A member 1; assay type: protein assay; remark: listed apart in the source
Caspase-3 = biological target: T5, Caspase-3 (Homo sapiens, UniProt P42574); test: activation of caspase-3 zymogen – biochemical, absorbance, dose response (AID 489014)
T5 sequence (P42574 whole entry): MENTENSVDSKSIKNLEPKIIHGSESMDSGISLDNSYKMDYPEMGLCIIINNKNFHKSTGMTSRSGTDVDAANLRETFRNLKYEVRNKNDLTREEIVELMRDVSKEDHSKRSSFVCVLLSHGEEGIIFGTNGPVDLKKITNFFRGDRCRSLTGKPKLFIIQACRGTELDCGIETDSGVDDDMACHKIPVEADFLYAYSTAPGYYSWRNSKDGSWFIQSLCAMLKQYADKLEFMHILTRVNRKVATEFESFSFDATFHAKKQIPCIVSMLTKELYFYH

Coagulation factor XII = biological target: T6, Coagulation factor XII (Homo sapiens, UniProt P00748); test: activated coagulation factor XII inhibitor potency, concentration-effect curve, cell-free (AID 716); assay type: functional
T6 sequence (P00748 whole entry): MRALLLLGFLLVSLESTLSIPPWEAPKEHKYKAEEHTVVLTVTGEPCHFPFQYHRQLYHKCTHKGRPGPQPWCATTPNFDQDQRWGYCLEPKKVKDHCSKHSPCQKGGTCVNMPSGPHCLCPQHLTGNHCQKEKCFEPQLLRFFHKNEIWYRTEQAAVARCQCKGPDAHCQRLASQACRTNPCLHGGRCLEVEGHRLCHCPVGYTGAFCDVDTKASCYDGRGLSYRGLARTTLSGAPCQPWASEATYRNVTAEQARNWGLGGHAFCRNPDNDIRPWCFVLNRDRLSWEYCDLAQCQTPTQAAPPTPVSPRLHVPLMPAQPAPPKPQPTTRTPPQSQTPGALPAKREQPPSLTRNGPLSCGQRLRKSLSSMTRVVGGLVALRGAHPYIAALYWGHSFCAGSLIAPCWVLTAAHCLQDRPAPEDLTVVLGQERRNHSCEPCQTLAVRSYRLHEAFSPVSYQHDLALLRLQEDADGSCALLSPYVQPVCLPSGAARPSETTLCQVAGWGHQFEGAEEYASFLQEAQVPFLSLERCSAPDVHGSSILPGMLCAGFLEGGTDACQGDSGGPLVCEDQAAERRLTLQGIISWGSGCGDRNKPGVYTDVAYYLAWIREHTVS

T2 sequence (Q92731 whole entry): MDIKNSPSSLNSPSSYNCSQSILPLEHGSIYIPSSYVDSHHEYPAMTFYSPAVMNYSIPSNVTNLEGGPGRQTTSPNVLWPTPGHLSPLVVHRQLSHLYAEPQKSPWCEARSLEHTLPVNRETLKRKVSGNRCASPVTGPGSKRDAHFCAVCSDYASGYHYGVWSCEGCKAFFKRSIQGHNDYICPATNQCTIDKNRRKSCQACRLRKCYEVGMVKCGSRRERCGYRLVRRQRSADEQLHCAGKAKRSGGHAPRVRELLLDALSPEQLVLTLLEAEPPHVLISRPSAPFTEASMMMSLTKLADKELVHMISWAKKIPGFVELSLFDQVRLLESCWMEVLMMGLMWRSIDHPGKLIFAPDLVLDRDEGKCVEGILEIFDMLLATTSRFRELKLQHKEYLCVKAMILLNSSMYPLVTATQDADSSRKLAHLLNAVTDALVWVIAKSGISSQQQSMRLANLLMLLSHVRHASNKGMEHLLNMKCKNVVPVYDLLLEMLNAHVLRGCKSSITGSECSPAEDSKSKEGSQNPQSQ
T4 sequence (Q00975 whole entry): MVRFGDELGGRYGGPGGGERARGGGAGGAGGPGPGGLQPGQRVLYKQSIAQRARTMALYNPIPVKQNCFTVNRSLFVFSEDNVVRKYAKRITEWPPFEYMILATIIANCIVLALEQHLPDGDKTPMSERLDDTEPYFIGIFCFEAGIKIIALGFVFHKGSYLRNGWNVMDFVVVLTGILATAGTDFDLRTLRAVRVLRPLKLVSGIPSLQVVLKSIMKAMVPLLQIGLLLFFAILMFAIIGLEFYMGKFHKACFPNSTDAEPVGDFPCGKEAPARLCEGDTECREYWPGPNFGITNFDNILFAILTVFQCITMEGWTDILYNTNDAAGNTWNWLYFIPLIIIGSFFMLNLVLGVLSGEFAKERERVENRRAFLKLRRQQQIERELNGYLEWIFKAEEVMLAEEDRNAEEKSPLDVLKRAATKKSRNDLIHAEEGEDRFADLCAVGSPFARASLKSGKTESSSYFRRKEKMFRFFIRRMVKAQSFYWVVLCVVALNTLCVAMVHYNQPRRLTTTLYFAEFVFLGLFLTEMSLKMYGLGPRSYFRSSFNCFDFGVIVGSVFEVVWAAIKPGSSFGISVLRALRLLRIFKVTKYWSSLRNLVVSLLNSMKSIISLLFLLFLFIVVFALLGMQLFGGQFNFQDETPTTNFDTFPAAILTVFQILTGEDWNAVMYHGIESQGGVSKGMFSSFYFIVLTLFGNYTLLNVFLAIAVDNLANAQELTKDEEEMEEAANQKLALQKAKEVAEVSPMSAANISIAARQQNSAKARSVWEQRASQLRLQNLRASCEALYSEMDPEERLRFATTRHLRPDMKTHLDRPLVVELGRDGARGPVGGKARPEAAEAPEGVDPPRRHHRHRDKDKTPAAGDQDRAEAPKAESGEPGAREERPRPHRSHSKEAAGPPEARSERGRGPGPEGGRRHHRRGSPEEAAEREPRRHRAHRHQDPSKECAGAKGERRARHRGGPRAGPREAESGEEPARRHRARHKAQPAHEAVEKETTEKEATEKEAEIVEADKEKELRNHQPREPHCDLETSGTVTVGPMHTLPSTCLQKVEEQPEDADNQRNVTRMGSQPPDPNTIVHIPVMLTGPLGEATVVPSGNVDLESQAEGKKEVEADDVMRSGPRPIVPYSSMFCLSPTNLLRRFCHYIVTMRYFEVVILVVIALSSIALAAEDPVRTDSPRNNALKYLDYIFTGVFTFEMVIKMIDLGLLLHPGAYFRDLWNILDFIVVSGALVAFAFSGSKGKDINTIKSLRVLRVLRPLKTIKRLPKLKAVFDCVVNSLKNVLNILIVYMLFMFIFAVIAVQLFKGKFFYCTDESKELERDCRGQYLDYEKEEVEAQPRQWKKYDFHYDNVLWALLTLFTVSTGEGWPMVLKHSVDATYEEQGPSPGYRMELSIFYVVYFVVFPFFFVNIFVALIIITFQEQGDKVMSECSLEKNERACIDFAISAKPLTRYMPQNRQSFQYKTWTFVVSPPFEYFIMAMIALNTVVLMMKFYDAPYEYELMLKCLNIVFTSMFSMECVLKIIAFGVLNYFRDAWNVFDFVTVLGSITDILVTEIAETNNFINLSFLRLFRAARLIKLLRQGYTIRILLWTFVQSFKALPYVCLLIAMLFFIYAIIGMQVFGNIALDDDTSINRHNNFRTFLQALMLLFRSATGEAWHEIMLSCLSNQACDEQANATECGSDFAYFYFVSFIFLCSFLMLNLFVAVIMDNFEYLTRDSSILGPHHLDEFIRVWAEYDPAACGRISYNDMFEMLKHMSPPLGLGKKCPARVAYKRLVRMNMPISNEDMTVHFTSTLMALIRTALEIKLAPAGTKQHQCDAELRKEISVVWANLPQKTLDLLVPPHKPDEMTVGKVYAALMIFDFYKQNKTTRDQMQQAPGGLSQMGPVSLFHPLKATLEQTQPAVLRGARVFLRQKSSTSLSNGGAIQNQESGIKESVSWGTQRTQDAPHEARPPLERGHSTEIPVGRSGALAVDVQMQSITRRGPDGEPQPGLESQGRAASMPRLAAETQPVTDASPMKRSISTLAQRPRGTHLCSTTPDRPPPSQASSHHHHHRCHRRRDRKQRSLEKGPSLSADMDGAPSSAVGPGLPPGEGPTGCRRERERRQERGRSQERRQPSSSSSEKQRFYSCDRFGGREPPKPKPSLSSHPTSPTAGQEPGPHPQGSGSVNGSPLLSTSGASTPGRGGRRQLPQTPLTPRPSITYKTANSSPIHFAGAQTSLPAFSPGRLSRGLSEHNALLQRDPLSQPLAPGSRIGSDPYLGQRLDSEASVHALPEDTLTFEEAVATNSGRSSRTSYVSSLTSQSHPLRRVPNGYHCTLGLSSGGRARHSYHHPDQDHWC
T4 sequence (Q02410 whole entry): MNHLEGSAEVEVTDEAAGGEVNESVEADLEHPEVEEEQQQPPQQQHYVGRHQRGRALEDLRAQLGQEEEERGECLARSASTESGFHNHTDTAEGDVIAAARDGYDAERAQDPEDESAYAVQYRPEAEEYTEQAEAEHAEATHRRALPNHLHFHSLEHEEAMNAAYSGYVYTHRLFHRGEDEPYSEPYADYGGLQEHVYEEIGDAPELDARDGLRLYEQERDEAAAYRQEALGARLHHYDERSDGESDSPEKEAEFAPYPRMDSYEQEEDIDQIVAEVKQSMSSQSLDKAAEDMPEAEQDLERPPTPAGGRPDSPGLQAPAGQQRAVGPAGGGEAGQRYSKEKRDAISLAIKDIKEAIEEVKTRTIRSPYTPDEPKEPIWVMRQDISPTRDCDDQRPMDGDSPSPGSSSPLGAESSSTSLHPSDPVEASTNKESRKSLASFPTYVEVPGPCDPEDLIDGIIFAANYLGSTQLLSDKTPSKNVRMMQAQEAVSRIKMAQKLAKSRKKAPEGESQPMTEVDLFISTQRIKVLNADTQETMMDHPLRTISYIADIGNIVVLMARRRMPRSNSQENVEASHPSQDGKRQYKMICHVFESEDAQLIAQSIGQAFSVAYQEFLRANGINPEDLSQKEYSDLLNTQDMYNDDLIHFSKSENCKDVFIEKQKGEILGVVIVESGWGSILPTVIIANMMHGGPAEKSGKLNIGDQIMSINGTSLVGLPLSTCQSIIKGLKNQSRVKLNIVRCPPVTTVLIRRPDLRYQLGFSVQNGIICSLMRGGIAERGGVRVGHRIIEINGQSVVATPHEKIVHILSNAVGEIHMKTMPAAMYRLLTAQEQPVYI
Chain of Protein Tat (P04608 whole entry): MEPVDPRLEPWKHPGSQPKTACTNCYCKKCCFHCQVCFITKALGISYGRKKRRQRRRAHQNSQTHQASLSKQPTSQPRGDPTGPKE
Chain of Trypsin (P00761 whole entry): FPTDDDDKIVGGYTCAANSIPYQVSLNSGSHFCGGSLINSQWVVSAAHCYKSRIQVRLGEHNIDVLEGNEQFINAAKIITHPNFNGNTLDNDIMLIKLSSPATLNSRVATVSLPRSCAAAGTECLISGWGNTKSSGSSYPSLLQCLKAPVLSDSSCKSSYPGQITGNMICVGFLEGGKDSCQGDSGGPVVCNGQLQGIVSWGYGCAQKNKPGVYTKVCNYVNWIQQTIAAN
Chain of Induced myeloid leukemia cell differentiation protein Mcl-1 (Q07820 whole entry): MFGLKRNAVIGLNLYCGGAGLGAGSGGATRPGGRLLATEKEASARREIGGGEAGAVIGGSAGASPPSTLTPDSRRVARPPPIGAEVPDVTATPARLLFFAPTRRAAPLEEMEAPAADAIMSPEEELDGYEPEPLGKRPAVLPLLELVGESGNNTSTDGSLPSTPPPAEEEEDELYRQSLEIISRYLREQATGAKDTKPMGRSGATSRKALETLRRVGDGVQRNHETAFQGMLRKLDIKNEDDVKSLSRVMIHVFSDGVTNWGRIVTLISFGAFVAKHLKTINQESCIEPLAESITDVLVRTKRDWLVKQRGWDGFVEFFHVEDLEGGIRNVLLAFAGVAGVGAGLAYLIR
Chain of CAAX prenyl protease 2 (Saccharomyces cerevisiae S288c, UniProt Q03530) (Q03530 whole entry): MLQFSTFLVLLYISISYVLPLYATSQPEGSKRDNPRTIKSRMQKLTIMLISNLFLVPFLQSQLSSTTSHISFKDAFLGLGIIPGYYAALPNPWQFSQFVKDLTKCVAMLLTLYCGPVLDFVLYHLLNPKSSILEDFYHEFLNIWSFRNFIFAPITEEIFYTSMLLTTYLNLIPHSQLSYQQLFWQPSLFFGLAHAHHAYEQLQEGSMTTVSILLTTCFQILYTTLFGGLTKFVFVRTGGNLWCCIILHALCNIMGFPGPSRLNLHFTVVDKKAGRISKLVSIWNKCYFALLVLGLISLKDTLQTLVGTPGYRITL
Chain of Caspase-7 (P55210 24-198 limits assumed): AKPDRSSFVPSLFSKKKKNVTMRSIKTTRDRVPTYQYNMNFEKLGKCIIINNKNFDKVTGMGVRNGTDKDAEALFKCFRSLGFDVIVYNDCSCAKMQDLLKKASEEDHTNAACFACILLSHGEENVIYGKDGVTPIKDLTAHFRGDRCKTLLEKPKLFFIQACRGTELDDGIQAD
Chain of Caspase-7 (P55210 207-303 limits assumed): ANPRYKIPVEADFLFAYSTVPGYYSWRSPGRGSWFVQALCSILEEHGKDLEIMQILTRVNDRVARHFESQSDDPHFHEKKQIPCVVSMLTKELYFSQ

Which AC50 (CAAX prenyl protease 1) does the source give for `CC(=O)Nc1ccc(S(=O)(=O)Nc2cccc(-c3nc4ccccc4o3)c2)cc1` here?
Its AC50 is 7.83 µM (active).

What about the AC50 (CAAX prenyl protease 2 [1]) of the same compound?
Its AC50 is 7.75 µM (active).

And the IC50 [2]?
The IC50 was > 100 µM (active).

And the AC50 (CAAX prenyl protease 2 [3])?
The AC50 was 14.4 µM (active).

What about the AC50 (Trypsin) of the same compound?
The AC50 was 5.89 µM (active).

What does the source list for `CCCC1=NN2C(=N)/C(=C\c3ccc(SCc4ccco4)o3)C(=O)N=C2S1`?
IC50 (Large T antigen): 29.3 µM (active); IC50 (Estrogen receptor beta [4]): 2.65 µM (active); IC50 [5]: > 75 µM (active); IC50 [6]: 6.34 µM (active); IC50 (Estrogen receptor beta [7]): > 50 µM (not active); IC50 [8]: 59.4 µM (active); IC50 (Protein Tat): 1.98 µM (inconclusive); IC50 [9]: 13.7 µM (active); IC50 (Prothrombin): 22.8 µM (active); IC50 (Protein skinhead-1): > 100 µM (inactive); IC50 [10]: 3.18 µM (active)

Which IC50 [11] does the source give for `Cc1cc2nn(-c3cccc4ccccc34)nc2cc1N` here?
The IC50 was 46.7 µM (active).

And the EC50 (Caspase-7)?
The EC50 was > 85.2 µM (inactive).

What about the IC50 [12] of the same compound?
The IC50 was 8.23 µM (active).

And the EC50 (Caspase-3)?
The EC50 was > 85.2 µM (inactive).

With `COc1cc(NC(=O)COc2cccc(OC)c2)cc(OC)c1` as the compound, how does the IC50 (Coagulation factor XII) read?
The IC50 was > 50 µM (inactive).
